{"source": "patent US8597613B2", "about": "“Radiolabeled lymphatic staining agents and methods for making” (Iso-Tex Diagnostics, Inc, priority 2004, dated 2013)", "origin": "cited, not measured here", "settings": "0.1-0.5 cc injected into the breast following wire-localization procedures"}
{"smiles": "CN(C)c1ccc2nc3ccc(=[N+](C)C)cc-3sc2c1", "note": "[methylene blue, phenothiazin-5-ium-3,7-bis(dimethylamino)-chloride]", "values": [{"measurement": "reported adverse events", "value": "no reported adverse events"}]}
